In PMC3612826, “Structural-Functional Analysis of 2,1,3-Benzoxadiazoles and Their N-oxides As HIV-1 Integrase Inhibitors” (Acta Naturae, 2013):

Key:
recombinant HIV-1 IN = recombinant HIV-1 IN (Human immunodeficiency virus type 1 group M subtype B, UniProt P12497); assay: biochemical; type: biochemical
wild-type HIV-1 IN = wild-type HIV-1 IN (Human immunodeficiency virus type 1 group M subtype B, UniProt P12497); assay: biochemical; type: biochemical

| SMILES | IC50 (recombinant HIV-1 IN) [µM] | Inhibitory potential, 3'-processing (recombinant HIV-1 IN) | IC50 (wild-type HIV-1 IN) [µM] | Inhibitory potential, strand transfer (wild-type HIV-1 IN) |
| --- | --- | --- | --- | --- |
| [O-][n+]1onc2ccccc21 [Compound 1, unsubstituted BFX] | > 1000 | exhibited no inhibitory potential | > 1000 | exhibited no inhibitory potential |
| O=[N+]([O-])c1cc([N+](=O)[O-])c2no[n+]([O-])c2c1-[n+]1ccccc1 [Compound 24] | 75 ± 15 |  | 80 ± 20 |  |
